The results in this text go back to patent US20250340561A1, “QUINAZOLINE COMPOUND FOR INDUCING DEGRADATION OF G12D MUTANT KRAS PROTEIN” (Astellas Pharma Inc., priority 2021, published 2025).

Structures are written as SMILES. Counter-ions that a name gives are not always drawn. Like-named read-outs stand apart in the source and are kept apart here.

Assay [1] deals with phosphorylation of ERK (Thr202/Tyr204). The experiment in a line: Test Example 2: ERK phosphorylation inhibition action in AsPC-1, Cell ELISA. The format is cell-based, human. The note with it: Homo sapiens, ASPC1, 24 h, AsPC-1 cells, 0% = 1 μM trametinib. The procedure: Test Example 2: Evaluation of ERK Phosphorylation Inhibition Action on Human G12D Mutant KRAS-Positive Pancreatic Cancer Line AsPC-1
The ERK phosphorylation inhibition action of test compounds was evaluated by measuring phosphorylation of the 202th threonine (Thr202) and the 204th tyrosine (Tyr204) of ERK located downstream of the KRAS signal by Cell ELISA.
AsPC-1 cells were seeded on a 384-well plate (from Greiner bio-one) at 36 μL/well to give 2.0×10^4 cells per well. As for the cell culture conditions, a RPMI 1640 medium containing 10% fetal bovine serum was used in the presence of 5% CO2 at 37° C.
The next day, the test compounds (6 points having final concentrations in the range of 10 μM to 3.0 nM), trametinib (MEK inhibitor) of a final concentration of 1 μM as a positive control and DMSO, which was the solvent for the test compounds, as a negative control were diluted 100-fold with a fresh medium and were added at 4 μL per well. The cells were then cultured for 24 hours. After culturing, a 30% glyoxal solution (40% glyoxal [from Nacalai Tesque] was diluted with PBS) was quickly added at 30 μL per well, and the plate was allowed to stand for 90 minutes at room temperature to thus immobilize the cells. Then, the plate was centrifuged to remove the supernatant (using a centrifugal dehydrator machine, the supernatant was removed by the same method hereinafter), and 0.1% Triton X-100-containing PBS was added at 20 μL per well. After allowing to stand for 10 minutes at room temperature, the supernatant was removed by centrifugation, and the same operation was further repeated. Next, 0.5% SDS-containing PBS was added at 20 μL per well, and after allowing to stand at room temperature for 30 minutes, the supernatant was removed by centrifugation. Subsequently, a blocking solution (Intercept Blocking Buffer) was added at 20 μL per well, and the plate was allowed to stand for 1 hour at room temperature. The supernatant was removed by centrifugation, and an ERK (Thr202/Tyr204) phosphorylation antibody (Phospho-p44/42 MAPK (Erk 1/2) (Thr202/Tyr204) (D13.14.4E) XP Rabbit mAb; from Cell Signaling Technology) diluted 2,500-fold with a blocking solution was added at 10 or 15 μL per well as a primary antibody. The plate was allowed to stand at 4° C. overnight.
The next day, the plate was centrifuged to remove the supernatant. 0.05% Tween-20-containing PBS was added at 50 μL per well, and the supernatant was removed by centrifugation to thus wash each well. The washing was performed three times in total. After washing, Goat anti-Rabbit IgG H&L (IRDye 800CW) diluted 1,000-fold with a blocking solution was added at […] as a secondary antibody, and the plate was allowed to stand for 1 hour at room temperature. The plate was centrifuged to remove the supernatant, and each well was washed three times with 0.05% Tween-20-containing PBS in the same manner as after the primary antibody reaction. After removing the supernatant by centrifuging the plate, the plate was dried as it was with air at room temperature for 3 hours or more, and the 800-nm fluorescent signals were measured with Aerius.
With the signaling value at the time of addition of DMSO taken as 100% and with the signaling value at the time of addition of 1 μM trametinib taken as 0%, the 50% inhibition values (IC50) were calculated by Sigmoid-Emax model nonlinear regression analysis. The molecular weights of the test compounds were calculated as the molecular weights of the dihydrochloride for Example No. 22, the trihydrochlorides for Example Nos. 2-7, 9-12, 14-18 and 30, the tetrahydrochlorides for Example Nos. 19 and 46, the pentahydrochloride for Example No. 21 and the free forms forming no salt for the remaining Example Nos. The results for some test compounds of the formula (I) are shown in Table 3.
(In an ELISA, binding on a coated surface is turned into a signal by an enzyme label.)

Assay [2] concerns human G12D mutant KRAS-positive pancreatic cancer line AsPC-1. Kind of assay: Test Example 3: non-anchorage-dependent cell growth inhibition, spheroid 3D cell culture. The note with it: Homo sapiens, ASPC1, 144 h, AsPC-1 spheroid 3D culture, 6 days, CellTiter Glo 2.0. In kind it is cell-based. The procedure:
Test Example 3: Evaluation of Non-Anchorage-Dependent Cell Growth Inhibition Action on Human G12D Mutant KRAS-Positive Pancreatic Cancer Line AsPC-1
The non-anchorage-dependent cell growth inhibition action of test compounds was evaluated by spheroid 3D cell culture.
AsPC-1 cells were seeded on a low-cell-adhesive round bottom 384-well plate (PrimeSurface: from Sumitomo Bakelite) at 36 μL/well to give 5×10^2 cells per well. The cell culture was performed under the same conditions as in the Test Example 2.
The next day, the test compounds (6 points having final concentrations in the range of 10 μM to 3.0 nM) and DMSO, which was the solvent for the test compounds, as a negative control were diluted 100-fold with a fresh medium and were added at 4 μL per well. After culturing in the presence of […] at 37° C. for 6 days, CellTiter Glo 2.0 (from Promega) was added at 20 μL per well. After stirring with a plate mixer (from FINEPCR) at normal temperature for 1 hour, the luminescent signals were measured with ARVO X3 (from PerkinElmer).
With the signaling value in treatment with DMSO taken as […] and with the signaling value in the medium alone without cells taken as […], the […] inhibition values (IC50) were calculated by Sigmoid-Emax model nonlinear regression analysis. The molecular weights of the test compounds were calculated as the molecular weights of the dihydrochloride for Example No. 22, the trihydrochlorides for Example Nos. 2-7, 9-12, 14-18 and 30, the tetrahydrochlorides for Example Nos. 19 and 46, the pentahydrochloride for Example No. 21 and the free forms forming no salt for the remaining Example Nos. The results for some test compounds of the formula (I) are shown in Table 4.
For orientation: ATP-based viability assays read luminescence as a measure of living cells.

For `Cc1ncsc1-c1ccc([C@H](CO)NC(=O)[C@@H]2C[C@@H](O)CN2C(=O)[C@H](C(C)C)n2cc(-c3ccc(COc4c(-c5c(C)c(F)cc6[nH]ncc56)c(C5CC5)cc5c(N6C[C@@H]7C[C@H]6CN7)nc(OC[C@@H]6CCOC6)nc45)cc3)nn2)cc1` [Example 50], the values for the IC50 in assay [1] and in assay [2] were 10 nM and 21 nM, respectively.
As to `Cc1c(F)cc2[nH]ncc2c1-c1c(C2CC2)cc2c(N3C[C@@H]4C[C@H]3CN4)nc(OC3CCOCC3)nc2c1OCc1ccc(-c2cn([C@H](C(=O)N3C[C@H](O)C[C@H]3C(=O)N[C@@H](CO)c3ccc(-c4ccnn4C)cc3)C(C)C)nn2)cc1` [Example 22], the IC50 in assay [1] amounted to 12 nM; in assay [2], 27 nM.
Take `Cc1ncsc1-c1ccc([C@H](CO)NC(=O)[C@@H]2C[C@@H](O)CN2C(=O)[C@H](C(C)C)n2cc(-c3ccc(COc4c(-c5c(C)c(F)cc6[nH]ncc56)c(C5CC5)cc5c(N6C[C@@H]7C[C@H]6CN7)nc(OC6CCN(CC(F)F)CC6)nc45)cc3)nn2)cc1` [Example 21]: the IC50 was 19 nM in assay [1] (read-out: IC50) and 47 nM in assay [2] (read-out: IC50).
With `Cc1ncsc1-c1ccc([C@H](CO)NC(=O)[C@@H]2C[C@@H](O)CN2C(=O)[C@H](C(C)C)n2cc(-c3ccc(COc4c(-c5c(C)c(F)cc6[nH]ncc56)c(C5CC5)cc5c(N6C[C@@H]7C[C@H]6CN7)nc(O[C@H]6CCN(CC(F)F)C6)nc45)cc3)nn2)cc1` [Example 33], the IC50 in assay [1] was determined as 32 nM; in assay [2] it was 42 nM.
As for `Cc1ncsc1-c1ccc([C@@H](NC(=O)[C@@H]2C[C@@H](O)CN2C(=O)[C@H](C(C)C)n2cc(-c3ccc(COc4c(-c5c(C)c(F)cc6[nH]ncc56)c(C5CC5)cc5c(N6C[C@@H]7C[C@H]6CN7)nc(OC6CCOCC6)nc45)cc3)nn2)C(F)F)cc1` [Example 16], the IC50 was found to be 67 nM in assay [1] (read-out: IC50) and 185 nM in assay [2] (read-out: IC50).
On to `Cc1ncsc1-c1ccc(C2(NC(=O)[C@@H]3C[C@@H](O)CN3C(=O)[C@@H](NC(=O)c3ccc(COc4c(-c5c(C)c(F)cc6[nH]ncc56)c(C5CC5)cc5c(N6C[C@@H]7C[C@H]6CN7)nc(OC6CCOCC6)nc45)cn3)C(C)C)CC2)cc1` [Example 2], for which the IC50 in assay [1] worked out at 779 nM; in assay [2] it was 1410 nM.
In the same order, the values of `Cc1ncsc1-c1ccc([C@H](CO)NC(=O)[C@@H]2C[C@@H](O)CN2C(=O)[C@H](C(C)C)n2cc(-c3ccc(COc4c(-c5c(C)c(F)cc6[nH]ncc56)c(C5CC5)cc5c(N6C[C@@H]7C[C@H]6CN7)nc(OCC6(CO)CCOCC6)nc45)cc3)nn2)cc1` (atropisomer, axis not shown) [Example 36] are 31 nM and 24 nM.
For `Cc1ncsc1-c1ccc([C@H](CO)NC(=O)[C@@H]2C[C@@H](O)CN2C(=O)[C@H](C(C)C)n2cc(-c3ccc(COc4c(-c5c(C)c(F)cc6[nH]ncc56)c(C5CC5)cc5c(N6C[C@@H]7C[C@H]6CN7)nc(OC6CCOCC6)nc45)cc3)nn2)cc1` [Example 7, (4R)-1-[(2S)-2-(4-{4-[({6-cyclopropyl-4-[(1S,4S)-2,5-diazabicyclo[2.2.1]heptan-2-yl]-7-(6-fluoro-5-methyl-1H-indazol-4-yl)-2-[(oxan-4-yl)oxy]quinazolin-8-yl}oxy)methyl]phenyl}-1H-1,2,3-triazol-1-yl)-3-methylbutanoyl]-4-hydroxy-N-{(1R)-2-hydroxy-1-[4-(4-methyl-1,3-thiazol-5-yl)phenyl]ethyl}-L-prolinamide n hydrochloride], the values for the IC50 in assay [1] (read-out: IC50) and in assay [2] (read-out: IC50) were 17 nM and 31 nM, respectively.
As to `Cc1ncsc1-c1ccc([C@@H](CO)NC(=O)[C@@H]2C[C@@H](O)CN2C(=O)[C@H](C(C)C)n2cc(-c3ccc(COc4c(-c5c(C)c(F)cc6[nH]ncc56)c(C5CC5)cc5c(N6C[C@@H]7C[C@H]6CN7)nc(OC6CCOCC6)nc45)cc3)nn2)cc1` [Example 68], the IC50 stood at 2210 nM in assay [1] (read-out: IC50) and 1630 nM in assay [2] (read-out: IC50).
`Cc1ncsc1-c1ccc([C@H](CO)NC(=O)[C@@H]2C[C@@H](O)CN2C(=O)[C@H](C(C)C)n2cc(-c3ccc(COc4c(-c5c(C)c(F)cc6[nH]ncc56)c(C5CC5)cc5c(N6C[C@@H]7C[C@H]6CN7)nc(O[C@H]6CCN(CCO)C6)nc45)cc3)nn2)cc1` [Example 31]: the IC50 was determined as 194 nM in assay [1] and 321 nM in assay [2].

Broadly, the IC50 is the concentration needed to halve the response being measured.
